Earlier results on one compound are cited in patent US8410124B2, “Deuterated etravirine” (Concert Pharmaceuticals Inc., priority 2007, dated 2013).

A value given as a limit tells only on which side of the number the result lay.

For series [1] the following is noted: humans.
For series [2] the following is noted: over a 2 hour period.

In the case of `Cc1cc(C#N)cc(C)c1Oc1nc(Nc2ccc(C#N)cc2)nc(N)c1Br` [etravirine, 4-(6-amino-5-bromo-2-(4-cyanophenylamino)pyrimidin-4-yloxy)-3,5-dimethylbenzonitrile], the “most common adverse effects of the combined regimen” value (healthy volunteers, etravirine in combination with lopinavir/ritonavir) is “diarrhea and headache”. Under “phase IIb trials with treatment-experienced patients”, the “safety and tolerability profile” value is recorded as “generally comparable with placebo”. Besides, the mild side effects result (trials with HIV-1-infected patients dosed with etravirine) is “diarrhea, headache, abdominal pain, acute tonsillitis, flatulence, gastroenteritis, hot flushes, insomnia, intercostal pain, pruritus, somnolence, tachycardia and vomiting”. For the same compound, the “excreted largely intact in the feces” value in series [1] (feces) was over 85%. Also, in series [1] (urine), the “excreted largely intact in the urine” value is given as under 1%. Further, in series [2], the “degradation in human liver microsomes” value is listed as 15%.
